Laboratory results reported in US12545669B2, “Cycloalkyl and heterocycloalkyl benzisoxazole sulfonamide derivatives” (Pfizer Inc., priority 2019, dated 2026).
Values belong to the compound of their own block, whether it stands above or below them.

How the values were obtained:
[1] = biological target: KAT6A (Homo sapiens (Human), UniProt Q92794); experiment: KAT assay protocol (SAMDI mass spectrometry), KAT6A; assay type: biochemical; conditions: for inhibition at 1 µM: 1 μM compound; for IC50: KAT6A IC50 at 1 μM AcCoA, 1 μM AcCoA; for Ki: KAT6A Ki at 10 μM AcCoA, 10 μM AcCoA, Morrison equation
Sequence of KAT6A (Q92794 whole entry): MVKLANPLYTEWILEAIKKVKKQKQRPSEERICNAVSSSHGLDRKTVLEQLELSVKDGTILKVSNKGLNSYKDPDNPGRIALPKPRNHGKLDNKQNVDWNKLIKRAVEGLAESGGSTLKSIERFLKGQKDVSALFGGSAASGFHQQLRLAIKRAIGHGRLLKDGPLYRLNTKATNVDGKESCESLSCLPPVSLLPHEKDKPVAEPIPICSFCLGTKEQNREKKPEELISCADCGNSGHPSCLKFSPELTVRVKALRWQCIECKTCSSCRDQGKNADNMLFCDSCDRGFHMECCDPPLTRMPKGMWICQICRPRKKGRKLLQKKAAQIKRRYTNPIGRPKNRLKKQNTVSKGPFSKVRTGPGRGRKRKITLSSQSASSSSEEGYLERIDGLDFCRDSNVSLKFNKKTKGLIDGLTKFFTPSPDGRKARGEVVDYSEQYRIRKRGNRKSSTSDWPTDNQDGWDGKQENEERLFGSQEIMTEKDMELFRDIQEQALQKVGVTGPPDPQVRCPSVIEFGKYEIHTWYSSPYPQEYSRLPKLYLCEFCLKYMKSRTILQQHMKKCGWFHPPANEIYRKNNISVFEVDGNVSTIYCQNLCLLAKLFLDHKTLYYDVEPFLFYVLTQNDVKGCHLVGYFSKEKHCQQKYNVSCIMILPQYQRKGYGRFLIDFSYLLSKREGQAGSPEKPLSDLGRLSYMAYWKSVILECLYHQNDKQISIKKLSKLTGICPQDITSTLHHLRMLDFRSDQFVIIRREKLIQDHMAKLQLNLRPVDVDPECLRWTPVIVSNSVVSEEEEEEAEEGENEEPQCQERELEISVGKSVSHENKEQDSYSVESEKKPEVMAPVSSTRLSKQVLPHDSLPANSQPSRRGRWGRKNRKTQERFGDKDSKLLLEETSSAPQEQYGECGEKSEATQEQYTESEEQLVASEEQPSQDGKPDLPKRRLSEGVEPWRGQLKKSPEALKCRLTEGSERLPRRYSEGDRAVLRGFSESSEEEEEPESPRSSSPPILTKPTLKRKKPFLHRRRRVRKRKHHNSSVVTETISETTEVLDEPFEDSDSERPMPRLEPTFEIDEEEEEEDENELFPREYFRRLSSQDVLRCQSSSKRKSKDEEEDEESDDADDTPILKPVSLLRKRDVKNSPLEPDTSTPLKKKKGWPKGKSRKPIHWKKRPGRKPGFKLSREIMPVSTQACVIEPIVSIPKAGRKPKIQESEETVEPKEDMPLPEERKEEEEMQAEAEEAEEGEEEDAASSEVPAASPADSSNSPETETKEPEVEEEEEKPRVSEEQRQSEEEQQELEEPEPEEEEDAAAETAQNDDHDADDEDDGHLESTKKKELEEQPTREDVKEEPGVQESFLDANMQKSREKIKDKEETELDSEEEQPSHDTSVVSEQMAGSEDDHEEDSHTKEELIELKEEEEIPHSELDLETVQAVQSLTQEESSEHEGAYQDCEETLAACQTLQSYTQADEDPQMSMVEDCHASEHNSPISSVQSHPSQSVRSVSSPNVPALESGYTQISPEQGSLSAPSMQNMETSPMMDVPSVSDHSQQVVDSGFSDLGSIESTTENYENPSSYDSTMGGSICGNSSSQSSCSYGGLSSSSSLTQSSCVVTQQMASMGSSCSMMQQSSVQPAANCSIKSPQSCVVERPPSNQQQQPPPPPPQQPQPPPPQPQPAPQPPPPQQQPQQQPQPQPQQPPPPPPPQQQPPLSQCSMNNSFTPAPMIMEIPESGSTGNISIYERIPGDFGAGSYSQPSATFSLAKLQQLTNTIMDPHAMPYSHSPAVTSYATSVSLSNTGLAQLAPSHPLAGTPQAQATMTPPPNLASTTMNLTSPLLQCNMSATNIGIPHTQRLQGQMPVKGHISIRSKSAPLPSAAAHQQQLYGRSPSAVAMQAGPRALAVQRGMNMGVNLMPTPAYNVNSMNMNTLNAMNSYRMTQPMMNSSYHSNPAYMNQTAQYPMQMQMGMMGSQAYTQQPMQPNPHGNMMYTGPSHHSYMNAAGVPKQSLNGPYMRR
Experimental: Biological Assay Section 1 KAT Assay Protocol:
A. Compound Preparation • 1. Prepare 10 mM stock solutions in 100% DMSO from solid material • 2. Serial dilute 10 mM, 1 mM or 0.1 mM compound stocks 3-fold in 100% DMSO for 11-point dose response
B. Reagent Preparation • 1. Prepare 1× assay buffer containing 10 mM Tris HCL pH 8.0, 2.5 mM NaCl, 0.5 mM EDTA, 0.005% BSG and 0.02% Tween-20 • 2. Dilute Histone peptide (CPC Scientific) and AcCoA (Sigma) together in assay buffer to 2×. • 3. Dilute KAT enzyme in assay buffer to 2×.
C. Enzyme Reaction • 1. Final reaction conditions for each KAT assay in a 20 ul assay reaction volume: • i. […] Add 0.5 ul of diluted compound to the assay plate (384-well V-bottom polypropylene plates) or 0.5 ul of DMSO for control wells. • 3. Add 10 ul of 2× Histone peptide/2× AcCoA mix to the assay plate. • 4. Add 10 ul of 2× enzyme to the assay plate. • 5. Stop the reaction after the indicated time with the addition of 2 ul of 5% formic acid • 6. Each reaction was analyzed using self-assembled monolayer desorption/ionization time-of-flight mass spectrometry (Mrksich, Milan (2008) Mass Spectrometry of Self-Assembled Monolayers: A New Tool for Molecular Surface Science ACS Nano 2008 2 (1), 7-18; SAMDI Tech, Inc. (Chicago, IL)). • 7. Area under the curve (AUC) for both substrate and product peaks was determined for KAT6A at M.W. 2723 [Substrate+H]^+ and 2765 [Product+H]^+ with a +/−1 Da tolerance, respectively. • 8. Percent conversion to product was calculated by: AUCProduct/(AUCSubstrate+AUCProduct).
D. Data Analysis • 1. IC50 values were determined by fitting the % conversion at each inhibitor concentration to the 4-parameter IC50 equation using Pfizer proprietary curve fitting software. • 2. Ki values were determined by fitting the % conversion at each inhibitor concentration to the Morrison equation for tightbinding competitive inhibitors using Pfizer proprietary curve fitting software. Materials
KAT enzymes were expressed using a baculovirus expression system and purified at Pfizer, La Jolla. Histone H3 (1-21) peptide ([…], SEQ ID NO:3) was purchased from CPC Scientific (Sunnyvale, CA). Acetyl coenzyme A was purchased from Sigma-Aldrich (St. Louis, MO). All other biochemical reagents were purchased from Sigma-Aldrich or ThermoFisher Scientific (Waltham, MA).
[…] 10 ul of 2× Histone peptide/AcCoA mix was added to a 384-well V-bottom polypropylene assay plate containing 0.5 ul of serially diluted test compound in 100% dimethyl sulfoxide (DMSO). To start the reaction, 10 ul of 2× enzyme solution was added to the assay plate. KAT assays were terminated after 30-60 minutes with the addition of 2 ul of 5% formic acid. KAT6A used histone H3 (1-21) peptide. The final enzyme concentration for KAT6A was 15 nM. Each reaction was analyzed using self-assembled monolayer desorption/ionization time-of-flight mass spectrometry (Mrksich, Milan (2008) Mass Spectrometry of Self-Assembled Monolayers: A New Tool for Molecular Surface Science ACS Nano 2008 2 (1), 7-18; SAMDI Tech, Inc. (Chicago, IL)).
Area under the curve (AUC) for both substrate and product peaks was determined for KAT6A at M.W. 2723 [Substrate+H]^+ and 2765 [Product+H]^+ with a +/−1 Da tolerance, respectively. Percent conversion to product was calculated by: AUCProduct/(AUCSubstrate+AUCProduct). IC50 values were determined by fitting the % conversion at each inhibitor concentration to the 4-parameter IC50 equation using Pfizer proprietary curve fitting software. Ki values were determined by fitting the % conversion at each inhibitor concentration to the Morrison equation for tightbinding competitive inhibitors using Pfizer proprietary curve fitting software.

[2] = biological target: TIP60-KAT5 (Homo sapiens (Human), UniProt Q92993); experiment: biochemical
Sequence of TIP60-KAT5 (Q92993 other isoform, or with tags, fused parts or gaps): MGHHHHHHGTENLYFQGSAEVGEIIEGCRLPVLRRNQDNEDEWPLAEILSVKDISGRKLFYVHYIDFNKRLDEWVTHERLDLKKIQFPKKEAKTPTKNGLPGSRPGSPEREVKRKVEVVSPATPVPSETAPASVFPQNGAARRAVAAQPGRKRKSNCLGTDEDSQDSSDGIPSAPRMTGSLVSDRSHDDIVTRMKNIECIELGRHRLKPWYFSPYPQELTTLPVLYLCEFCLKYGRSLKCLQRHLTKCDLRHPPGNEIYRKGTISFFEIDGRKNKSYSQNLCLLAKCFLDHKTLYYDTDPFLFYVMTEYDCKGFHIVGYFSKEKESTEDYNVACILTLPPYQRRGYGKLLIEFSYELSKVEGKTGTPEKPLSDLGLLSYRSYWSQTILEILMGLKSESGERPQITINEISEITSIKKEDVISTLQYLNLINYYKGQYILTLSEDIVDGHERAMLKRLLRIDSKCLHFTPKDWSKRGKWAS

[3] = biological target: MOZ-KAT6A (Homo sapiens (Human), UniProt Q92794); experiment: biochemical
Sequence of MOZ-KAT6A (Q92794 other isoform, or with tags, fused parts or gaps): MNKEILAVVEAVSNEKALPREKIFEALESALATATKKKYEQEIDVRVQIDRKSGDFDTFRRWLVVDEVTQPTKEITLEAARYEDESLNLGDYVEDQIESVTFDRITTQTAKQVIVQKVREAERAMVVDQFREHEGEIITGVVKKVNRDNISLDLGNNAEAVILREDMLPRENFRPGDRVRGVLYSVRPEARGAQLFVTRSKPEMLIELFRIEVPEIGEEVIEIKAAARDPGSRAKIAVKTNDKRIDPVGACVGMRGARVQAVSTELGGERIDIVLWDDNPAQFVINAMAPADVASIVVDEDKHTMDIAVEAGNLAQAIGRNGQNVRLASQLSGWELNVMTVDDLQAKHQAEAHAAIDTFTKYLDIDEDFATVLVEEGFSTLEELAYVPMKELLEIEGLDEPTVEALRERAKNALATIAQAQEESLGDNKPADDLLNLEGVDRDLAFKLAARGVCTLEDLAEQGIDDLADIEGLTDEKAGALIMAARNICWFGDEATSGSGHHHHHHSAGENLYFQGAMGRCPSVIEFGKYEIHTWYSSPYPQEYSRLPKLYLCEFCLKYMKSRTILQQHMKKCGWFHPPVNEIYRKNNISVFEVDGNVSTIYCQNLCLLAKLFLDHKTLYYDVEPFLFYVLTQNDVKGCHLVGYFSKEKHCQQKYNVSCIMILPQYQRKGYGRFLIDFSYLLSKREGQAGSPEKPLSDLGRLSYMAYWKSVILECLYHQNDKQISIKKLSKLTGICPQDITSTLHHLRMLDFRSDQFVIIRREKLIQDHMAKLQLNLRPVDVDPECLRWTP

[4] = biological target: HBO1-KAT7 (Homo sapiens (Human), UniProt O95251); experiment: biochemical
Sequence of HBO1-KAT7 (O95251 other isoform, or with tags, fused parts or gaps): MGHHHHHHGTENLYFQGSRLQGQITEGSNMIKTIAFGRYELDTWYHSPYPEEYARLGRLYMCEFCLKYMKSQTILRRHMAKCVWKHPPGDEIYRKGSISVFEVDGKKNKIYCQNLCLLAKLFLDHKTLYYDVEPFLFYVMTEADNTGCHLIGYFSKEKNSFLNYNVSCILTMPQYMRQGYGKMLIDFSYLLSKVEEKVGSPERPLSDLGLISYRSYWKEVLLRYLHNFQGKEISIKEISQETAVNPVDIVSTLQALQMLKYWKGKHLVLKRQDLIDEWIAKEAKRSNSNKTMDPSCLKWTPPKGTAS

- inhibition at 1 µM [1]: 95%
SMILES: COc1cc(Cn2cccn2)cc2onc(NS(=O)(=O)CC3(C(F)F)CCCC3)c12 [Example 65]

- inhibition at 1 µM [1]: 81%
SMILES: COc1cc(Cn2cccn2)cc2onc(NS(=O)(=O)C3CCC(C#N)C3)c12 (stereo not drawn) [Example 16]

- inhibition at 1 µM [1]: 55%
SMILES: COc1cc(Cn2cccn2)cc2onc(NS(=O)(=O)CC3(C)CCCC3)c12 [Example 61]

- inhibition at 1 µM [1]: 108%
SMILES: COc1cc(Cn2cccn2)cc2onc(NS(=O)(=O)CCC3CC4CCC3C4)c12 (stereo not drawn) [Example 45]

Continued, compound first:

SMILES: COc1cc(Cn2cccn2)cc2onc(NS(=O)(=O)C3CCCCC3)c12 [Example 124]
- inhibition at 1 µM [1]: 88%
- IC50 [1]: 117 nM
- IC50 [2]: 2400 nM
- IC50 [3]: 30 nM
- IC50 [4]: 440 nM

SMILES: COc1cc(Cn2cccn2)cc2onc(NS(=O)(=O)CC3CCCCC3)c12 [Example 123]
- inhibition at 1 µM [1]: 85%
- IC50 [1]: 28.9 nM
- Ki [1]: 5.44 nM
- IC50 [2]: 9040 nM
- IC50 [3]: 15 nM
- IC50 [4]: 1260 nM

SMILES: COc1cc(Cn2cccn2)cc2onc(NS(=O)(=O)CC3CCCOC3)c12 (stereo not drawn) [Example 98]
- inhibition at 1 µM [1]: 41%

SMILES: CCOC1(CS(=O)(=O)Nc2noc3cc(Cn4cccn4)cc(OC)c23)CCOCC1 [Example 93]
- inhibition at 1 µM [1]: 59%

SMILES: COc1cc(Cn2cccn2)cc2onc(NS(=O)(=O)CC3CCCO3)c12 (stereo not drawn) [Example 5]
- IC50 [1]: 323 nM

SMILES: COc1cc(Cn2cccn2)cc2onc(NS(=O)(=O)CCC3CC3(F)F)c12 (stereo not drawn) [Example 78]
- inhibition at 1 µM [1]: 77%
- Ki [1]: 45.8 nM

SMILES: COc1cc(Cn2cccn2)cc2onc(NS(=O)(=O)CC3(OC)CCC3)c12 [Example 56]
- inhibition at 1 µM [1]: 71%
